This is an account of results in patent US20230270802A1, “ANTIVIRAL PHARMACEUTICAL COMPOSITION” (GSK CONSUMER HEALTHCARE SARL, priority 2020, published 2023).

Assay type in all cases: cell-based
The test system of one series is human coronavirus OC43. Description: OC43 viral genome copy number in MucilAir nasal epithelium, Example 1. The conditions noted are these: for Mean viral genome copy number, Log 10 ((Copies/ml) + 1): apical wash, 0.00 = below detection limit.
For series [1], the system named is MucilAir nasal human 3D epithelial model. Kind of series: Cilia beating frequency (CBF), Example 1. To be noted: T96h, OC43 infected inserts; Mock 8.5 Hz. As for the experimental part: Cilia beating frequency (CBF) is a parameter that indicates if the nasal epithelia is healthy and carrying out its physiologic function of mucus transport. CBF was measured by a dedicated setup for this purpose. The system consists of three parts: a Sony XCD V60 camera connected to an Olympus BX51 microscope, a PCI card and a specific package of software. The cilia beating frequency is expressed in Hz. […] CBF was then calculated using relevant software. It should be pointed out that CBF values may be subject to fluctuations due to parameters such as temperature, mucus viscosity or liquid applied on the apical surface of the cell model and observed values should be compared to a control condition in each experiment.
At T96h, the ciliary beating frequency (CBF) and the mucociliary clearance (MCC) of all inserts were measured. 200 µl of culture medium was added apically to all inserts and inserts were let sit for 20 minutes at 34° C. During this time, TEER of all inserts was measured. This apical washing liquid was then removed and was stored at -80° C. until the virus copy number was determined. The basal culture medium was removed and stored. 50 µl of the basal culture medium of all inserts was used for the LDH assay.

Series [2] shares this test system. Description: Trans-epithelial electronic resistance (TEER), Example 1. The conditions noted are these: all measured timepoints. From the text:
Trans-epithelial electronic resistance (TEER) is a dynamic parameter that reflects the state of epithelia and is typically between 200 to 600 Ω.cm^2. An increase of the TEER value reflects a blockage of the ion channel activities of the MucilAir cell culture. A notable decrease of the TEER values, but with the value still above 100 Ω.cm^2 can be observed in certain cases and indicates an activation of the ion channels. Disruption of cellular junction or holes in the epithelia result in TEER values below 100 Ω.cm^2. When an epithelium is damaged, a decrease of TEER would be associated with an increase of LDH release or a decrease of the cell viability. In this example, TEER was measured after addition of 200 µl of culture medium to the apical compartment of the inserts (i.e. during the washing step). TEER was measured with an EVOMX volt-ohm-meter (World Precision Instruments UK, Stevenage) for each condition. Resistance values (Q) were converted to TEER (Ω.cm^2) using the following formula: TEER (Ω.cm^2) = (resistance value (Ω) - 100 (Ω)) x 0.33 (cm^2), where 100 Q is the resistance of the membrane and 0.33 cm^2 is the total surface of the epithelium in one insert. The TEER measurement was conducted as follows: 200µl of culture medium was added on apical surface of each insert. The EVOMX was turned on. […] Then, the resistance (Q) was measured with the EVOMX in the Ohms measurement function.

Take `N#C[C@@]1(c2ccc3c(N)ncnn23)O[C@H](CO)[C@@H](O)[C@H]1O` [Positive antiviral control, GS-441524]: the “Mean viral genome copy number, Log 10 ((Copies/ml) + 1)” value in the series with human coronavirus OC43 (T4h) is 0.00 Log 10 ((Copies/ml) + 1); with human coronavirus OC43 (T24h) it was 0.00 Log 10 ((Copies/ml) + 1); with human coronavirus OC43 (T48h) it was 0.00 Log 10 ((Copies/ml) + 1); with human coronavirus OC43 (T72h), 5.21 Log 10 ((Copies/ml) + 1); in the series with human coronavirus OC43 (T96h), 4.69 Log 10 ((Copies/ml) + 1). Also, in the series with human coronavirus OC43 (each timepoint T24h - T96h), the “Apical genome copy number in comparison to negative control” value is listed as “statistically significantly reduced”. In series [1], the “Cilia beating frequency (CBF)” value was “about 15 Hz”.

On to “Polyethylene glycol tert-octylphenyl ether [positive controls for cytotoxicity]”, for which, in series [2], the TEER result was “below 100 Ω.cm^2”.
